Reference: article PMC8233901, “D-Amino Acid-Containing Lipopeptides Derived from the Lead Peptide BP100 with Activity against Plant Pathogens” (International Journal of Molecular Sciences, 2021)
Like-named read-outs stand apart in the source and are kept apart here. Where a SMILES comes first, the peptide text is derived from it. [ ]: non-standard residue; d: D form. The star is where a group is joined. Lauroyl = CCCCCCCCCCCC(=O)*

Experiments:
tobacco leaves [1] = tested on: tobacco leaves; design: method as in earlier work; conditions: all-L parent lipopeptides, ± confidence interval, cited from earlier work
horse erythrocytes [2] = tested on: horse erythrocytes; design: method as in earlier work; conditions: all-L parent lipopeptides, ± confidence interval (α = 0.05), cited from earlier work
horse erythrocytes [3] = experiment: Hemolytic activity (hemoglobin release from erythrocytes); type: cell-based; conditions: D-amino acid lipopeptides, TRIS buffer pH 7.2, 1 h, 37 °C, relative to melittin, ± confidence interval (α = 0.05)
Protocol: The hemolytic activity of the compounds was evaluated by determining hemoglobin release from erythrocyte suspensions of horse blood (5% vol/vol) (Oxoid) as previously described. Blood was centrifuged at 6000 g for 5 min, washed three times with tris(hydroxymethyl)aminomethane (TRIS) buffer (10 mM TRIS, 150 mM NaCl, pH 7.2) and diluted 10 times. Compounds were solubilized in TRIS buffer at 750, 500, 300 and 100 μM and mixed with horse erythrocytes (1:1 v/v). The mixture was incubated under continuous shaking for 1 h at 37 °C. Then, the tubes were centrifuged at 3500 g for 10 min, 80 μL aliquots of the supernatant transferred to 100-well microplates (Bioscreen), diluted with 80 μL water, and the absorbance measured at 540 nm (Bioscreen). Complete hemolysis was obtained by the addition of melittin at 100 μM (Sigma-Aldrich Corporation, Madrid, Spain). The percentage of hemolysis (H) was calculated using the equation: H = 100 × [(Op−Ob)/(Om−Ob)], where Op is the density for a given compound concentration, Ob for the buffer, and Om for the melittin-positive control.

tobacco leaves [4] = experiment: Effect of peptide infiltration on tobacco leaves (lesion size); type: in vivo; conditions: ± confidence interval; for Size of the lesion (mm) 50 µM: 100 µL infiltrated into mesophyll of tobacco leaves
Protocol: The lipopeptides were evaluated for their effect upon infiltration on tobacco leaves as described previously. Peptide solutions of 50, 150 and 250 μM were infiltrated (100 μL) into the mesophylls of fully expanded tobacco leaves. Infiltrations were carried out in a single leaf, and for each peptide and dose, at least three leaves randomly distributed in different plants were infiltrated. Control infiltrations with water (negative control) or melittin (positive control) at the same molar concentration were performed. The appearance of symptoms on the leaves was followed for 48 h after infiltration and measured as a lesion diameter.

[5] = D-amino acid lipopeptides, lesion diameter, 48 h, at least three leaves
[6] = D-amino acid lipopeptides, 100 µL infiltrated into tobacco leaves, lesion diameter, 48 h, at least three leaves
[7] = D-amino acid lipopeptides, 250 µM, 100 µL infiltrated into tobacco leaves, lesion diameter, 48 h, at least three leaves
[8] = Table 2, 250 µM infiltrated into tobacco leaves

Molecule	Size of the lesion (mm) 50 µM (tobacco leaves [1]; 50 µM) [mm]	Size of the lesion (mm) 150 µM (tobacco leaves [1]; 150 µM) [mm]	Size of the lesion (mm) 250 µM (tobacco leaves [1]; 250 µM) [mm]	Hemolysis (%) 50 µM (horse erythrocytes [2]; 50 µM) [%]	Hemolysis (%) 250 µM (horse erythrocytes [2]; 250 µM) [%]	Hemolysis (%) 375 µM (horse erythrocytes [2]; 375 µM) [%]	Hemolysis (%) 250 µM (horse erythrocytes [3]) [%]	Hemolysis (%) 375 µM (horse erythrocytes [3]) [%]	Size of the lesion (mm) 50 µM (tobacco leaves [4]; [5]) [mm]	Size of the lesion (mm) 150 µM (tobacco leaves [4]; [6]) [mm]	Size of the lesion (mm) 250 µM (tobacco leaves [4]; [7]) [mm]	Size of the lesion (mm) 250 µM (tobacco leaves [4]; [8]) [mm]
Ac-KKLFKKILKK(COC3H7)L-NH2 [BP389, analog of BP475 with all L-amino acids]	4 ± 1	7 ± 1	9 ± 3	9 ± 4	22 ± 2	39 ± 3						
CCCCCCCCCCCC(=O)NCCCC[C@H](NC(=O)[C@H](Cc1ccc(O)cc1)NC(=O)[C@H](CCCCN)NC(=O)[C@H](CC(C)C)NC(=O)[C@@H](NC(=O)[C@H](CCCCN)NC(=O)[C@H](CCCCN)NC(=O)[C@@H](Cc1ccccc1)NC(=O)[C@H](CC(C)C)NC(=O)[C@H](CCCCN)NC(=O)[C@H](CCCCN)NC(C)=O)[C@@H](C)CC)C(N)=O [BP476, Ac-KKLfKKILKYK(COC11H23)-NH2] (Ac-KKL[dF]KKILKYK(Lauroyl)-NH2)							94 ± 10	94 ± 67	3 ± 0.6	3 ± 0.5	5 ± 0.5	5 ± 0.5
CCCCCCCCCCCC(=O)NCCCC[C@H](NC(=O)[C@H](CCCCN)NC(=O)[C@H](CCCCN)NC(=O)[C@@H](Cc1ccccc1)NC(=O)[C@H](CC(C)C)NC(=O)[C@H](CCCCN)NC(=O)[C@H](CCCCN)NC(C)=O)C(=O)N[C@@H](CC(C)C)C(=O)N[C@@H](CCCCN)C(=O)N[C@@H](Cc1ccc(O)cc1)C(=O)N[C@@H](CC(C)C)C(N)=O [BP489, Ac-KKLfKKK(COC11H23)LKYL-NH2] (Ac-KKL[dF]KKK(Lauroyl)LKYL-NH2)							100 ± 6	100 ± 1	2 ± 0.5	6 ± 2	11 ± 1	11 ± 1
CCCC(=O)NCCCC[C@H](NC(=O)[C@@H](Cc1ccccc1)NC(=O)[C@H](CC(C)C)NC(=O)[C@H](CCCCN)NC(=O)[C@H](CCCCN)NC(C)=O)C(=O)N[C@@H](CCCCN)C(=O)N[C@H](C(=O)N[C@@H](CC(C)C)C(=O)N[C@@H](CCCCN)C(=O)N[C@@H](Cc1ccc(O)cc1)C(=O)N[C@@H](CC(C)C)C(N)=O)[C@@H](C)CC [BP498, Ac-KKLfK(COC3H7)KILKYL-NH2]							21 ± 3		4 ± 3	6 ± 2	6 ± 1	6 ± 1
CCCCCC(=O)NCCCC[C@@H](NC(=O)[C@H](CC(C)C)NC(=O)[C@H](CCCCN)NC(=O)[C@H](CCCCN)NC(C)=O)C(=O)N[C@@H](CCCCN)C(=O)N[C@@H](CCCCN)C(=O)N[C@H](C(=O)N[C@@H](CC(C)C)C(=O)N[C@@H](CCCCN)C(=O)N[C@@H](Cc1ccc(O)cc1)C(=O)N[C@@H](CC(C)C)C(N)=O)[C@@H](C)CC [BP484, Ac-KKLk(COC5H11)KKILKYL-NH2]							10 ± 2		0 ± 0	2 ± 2	7 ± 1	7 ± 1
CCCCCC(=O)N[C@@H](CCCCN)C(=O)N[C@@H](CCCCN)C(=O)N[C@@H](CC(C)C)C(=O)N[C@H](Cc1ccccc1)C(=O)N[C@@H](CCCCN)C(=O)N[C@@H](CCCCN)C(=O)N[C@H](C(=O)N[C@@H](CC(C)C)C(=O)N[C@@H](CCCCN)C(=O)N[C@@H](Cc1ccc(O)cc1)C(=O)N[C@@H](CC(C)C)C(N)=O)[C@@H](C)CC [BP472, C5H11CO-KKLfKKILKYL-NH2]							78 ± 5		2 ± 1	4 ± 1	4 ± 1	4 ± 1
CCCC(=O)NCCCC[C@H](NC(=O)[C@H](CCCCN)NC(=O)[C@@H](Cc1ccccc1)NC(=O)[C@H](CC(C)C)NC(=O)[C@H](CCCCN)NC(=O)[C@H](CCCCN)NC(C)=O)C(=O)N[C@H](C(=O)N[C@@H](CC(C)C)C(=O)N[C@@H](CCCCN)C(=O)N[C@@H](Cc1ccc(O)cc1)C(=O)N[C@@H](CC(C)C)C(N)=O)[C@@H](C)CC [BP473, Ac-KKLfKK(COC3H7)ILKYL-NH2]							84 ± 11		2 ± 2	4 ± 0.9	5 ± 2	5 ± 2
